Values of other authors, collected in patent publication US20120201867A1, “DRUG DELIVERY FROM EMBOLIC AGENTS” (priority 2004, published 2012).
Structures can show the parent of a compound that is named as a salt.

Assays:
[1] = test system: topoisomerase I purified from human and rodent tumour cell lines; details: SN-38 versus irinotecan
CC531-lacZ cells = details: Saenger et al.

SMILES	potency relative to irinotecan as an inhibitor of topoisomerase I [1]	complete remission, share of rats (CC531-lacZ cells)	reduction of the mean tumour cell load (CC531-lacZ cells)
CCc1c2c(nc3ccc(O)cc13)-c1cc3c(c(=O)n1C2)COC(=O)[C@]3(O)CC [SN-38]	approximately 1000 times		
CCc1c2c(nc3ccc(OC(=O)N4CCC(N5CCCCC5)CC4)cc13)-c1cc3c(c(=O)n1C2)COC(=O)[C@]3(O)CC [irinotecan, Irinotecan hydrochloride trihydrate]		44%	66%
